# Measurements: patent publication US20050084509A1, “Use of citric acid and low concentrations of alpha-hydroxy acids for superficial skin treatment” (priority 2003, published 2005)
# Columns and labels:
# skin = experiment: low concentration citric acid peel self-administered in the home; format: in vivo, human
# signs of photoaging = experiment: citric acid versus glycolic acid at equal concentration and same pH; format: in vivo, human
# ichthyosis = details: in vivo; cited from earlier work
# photodamaged skin = experiment: citric acid peels on photodamaged skin (office peel study); details: 50 percent citric acid solution
# [1] = two months after last treatment
compound,measurement,setting,value
O=C(O)CC(O)(CC(=O)O)C(=O)O [citric acid],"subjective assessment of fine lines, wrinkles, enlarged pores, and brown spots","skin; 10 percent citric acid solution, three treatments at two-week intervals, two months after third treatment",statistically significant improvement
same,skin tolerance without neutralization,skin; ten percent citric acid,may be left on most people's skin without neutralization
same,reducing the signs of photoaging versus glycolic acid,signs of photoaging; equal concentration of glycolic acid at the same pH,more effective
same,side effects versus glycolic acid,signs of photoaging; glycolic acid of the same concentration,side effects are less
same,efficacy in treating ichthyosis,ichthyosis,highly effective
same,"fine lines and wrinkles, photographs evaluated by blinded observers","photodamaged skin; 2-5 min, neutralized, peels at one month intervals, evaluated two months after last treatment",statistically significant improvement
same,redness immediately following a peel,photodamaged skin; immediately after peel,increase in redness
same,"fine lines, wrinkles by Primos topographic image analysis",photodamaged skin; [1],"improvement in fine lines, wrinkles"
same,pore size by Primos topographic image analysis,photodamaged skin; [1],reduction in pore size
same,redness by cross-polarized photography,photodamaged skin; [1],no dramatic change in redness
